Results from patent publication US20090029995A1, “HETERO BIARYL DERIVATIVES AS MATRIX METALLOPROTEINASE INHIBITORS” (WARNER-LAMBERT COMPANY, priority 2002, published 2009).
pIC50: −log10 of the molar value.

What was measured:
MMP-7 full-length = target: T1, MMP-7 full-length (Homo sapiens, UniProt P09237); experiment: MMP-7 full-length inhibition (thiopeptolide substrate hydrolysis); format: biochemical
T1 sequence (P09237 95-267): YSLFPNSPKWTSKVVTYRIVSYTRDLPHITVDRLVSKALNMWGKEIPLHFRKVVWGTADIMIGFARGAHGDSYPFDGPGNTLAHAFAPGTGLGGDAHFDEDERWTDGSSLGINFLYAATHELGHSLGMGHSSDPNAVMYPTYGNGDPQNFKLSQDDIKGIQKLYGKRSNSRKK
Description: (§1) Certain compounds of Formula I have been assayed with MMP-1 full-length, MMP-3 catalytic domain, MMP-7 full-length, MMP-8 full-length, MMP-9 full-length, MMP-12 catalytic domain, MMP-14 catalytic domain, and MMP-17 catalytic domain.
(§2) The assays measure the amount by which a test compound reduces the hydrolysis of a thiopeptolide substrate catalyzed by a matrix metalloproteinase enzyme. Such assays are described in detail by Ye et al., in Biochemistry, 1992; 31(45): 11231-11235, which is incorporated herein by reference. One such assay is described below in Biological Method 1.
(§3) Thiopeptolide substrates show virtually no decomposition or hydrolysis at or below neutral pH in the absence of a matrix metalloproteinase enzyme. A typical thiopeptolide substrate commonly utilized for assays is Ac-Pro-Leu-Gly-thioester-Leu-Leu-Gly-OEt. A 100 μL assay mixture will contain 50 mM of N-2-hydroxyethylpiperazine-N′-2-ethanesulfonic acid buffer (“HEPES,” pH 7.0), 10 mM CaCl2, 100 μM thiopeptolide substrate, and 1 mM 5,5′-dithio-bis-(2-nitro-benzoic acid) (DTNB). The thiopeptolide substrate concentration may be varied, for example from 10 to 800 μM to obtain Km and Kcat values. The change in absorbance at 405 nm is monitored on a Thermo Max microplate reader (molecular Devices, Menlo Park, Calif.) at room temperature (22° C.). The calculation of the amount of hydrolysis of the thiopeptolide substrate is based on E412=13600 M^−1 cm^−1 for the DTNB-derived product 3-carboxy-4-nitrothiophenoxide. […]
(§4) Some representative compounds of Formula I have been evaluated for their ability to inhibit MMP-13. Inhibitor activity versus other MMPs with the compounds may be determined using, for example, MMP-1FL, which refers to full length interstitial collagenase; MMP-2FL, which refers to full length Gelatinase A; MMP-3CD, which refers to the catalytic domain of stromelysin; MMP-7FL, which refers to full length matrilysin; MMP-9FL, which refers to full length Gelatinase B; MMP-13CD, which refers to the catalytic domain of collagenase 3; and MMP-14CD, which refers to the catalytic domain of MMP-14. […]

MMP-3 catalytic domain = MMP-3 catalytic domain (Homo sapiens, UniProt P08254); experiment: MMP-3 catalytic domain inhibition (thiopeptolide substrate hydrolysis, MES buffer pH 6.0); format: biochemical; conditions: read-out: MMP-3CD IC50
Sequence of MMP-3 catalytic domain (P08254 100-272 limits assumed): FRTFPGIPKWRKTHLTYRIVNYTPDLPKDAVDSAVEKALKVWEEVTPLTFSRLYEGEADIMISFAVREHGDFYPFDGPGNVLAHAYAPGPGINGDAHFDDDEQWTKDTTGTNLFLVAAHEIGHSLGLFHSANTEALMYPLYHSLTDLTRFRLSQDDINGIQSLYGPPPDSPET
Description: as §1, §2
(§5) Thiopeptolide substrates show virtually no decomposition or hydrolysis at or below neutral pH in the absence of a matrix metalloproteinase enzyme. A typical thiopeptolide substrate commonly utilized for assays is Ac-Pro-Leu-Gly-thioester-Leu-Leu-Gly-OEt. A 100 μL assay mixture will contain 50 mM of N-2-hydroxyethylpiperazine-N′-2-ethanesulfonic acid buffer (“HEPES,” pH 7.0), 10 mM CaCl2, 100 μM thiopeptolide substrate, and 1 mM 5,5′-dithio-bis-(2-nitro-benzoic acid) (DTNB). The thiopeptolide substrate concentration may be varied, for example from 10 to 800 μM to obtain Km and Kcat values. The change in absorbance at 405 nm is monitored on a Thermo Max microplate reader (molecular Devices, Menlo Park, Calif.) at room temperature (22° C.). The calculation of the amount of hydrolysis of the thiopeptolide substrate is based on E412=13600 M^−1 cm^−1 for the DTNB-derived product 3-carboxy-4-nitrothiophenoxide. Assays are carried out with and without matrix metalloproteinase inhibitor compounds, and the amount of hydrolysis is compared for a determination of inhibitory activity of the test compounds.
(§6) Test compounds were evaluated at various concentrations in order to determine their respective IC50 values, the micromolar concentration of compound required to cause a 50% inhibition of catalytic activity of the respective enzyme.
It should be appreciated that the assay buffer used with MMP-3CD was 50 mM N-morpholinoethane sulfonate (“MES”) at pH 6.0 rather than the HEPES buffer at pH 7.0 described above. […]
as §4

MMP-9 full-length = MMP-9 full-length (Homo sapiens, UniProt P14780); experiment: MMP-9 full-length inhibition (thiopeptolide substrate hydrolysis); format: biochemical; conditions: read-out: MMP-9FL IC50
Sequence of MMP-9 full-length (P14780 94-707): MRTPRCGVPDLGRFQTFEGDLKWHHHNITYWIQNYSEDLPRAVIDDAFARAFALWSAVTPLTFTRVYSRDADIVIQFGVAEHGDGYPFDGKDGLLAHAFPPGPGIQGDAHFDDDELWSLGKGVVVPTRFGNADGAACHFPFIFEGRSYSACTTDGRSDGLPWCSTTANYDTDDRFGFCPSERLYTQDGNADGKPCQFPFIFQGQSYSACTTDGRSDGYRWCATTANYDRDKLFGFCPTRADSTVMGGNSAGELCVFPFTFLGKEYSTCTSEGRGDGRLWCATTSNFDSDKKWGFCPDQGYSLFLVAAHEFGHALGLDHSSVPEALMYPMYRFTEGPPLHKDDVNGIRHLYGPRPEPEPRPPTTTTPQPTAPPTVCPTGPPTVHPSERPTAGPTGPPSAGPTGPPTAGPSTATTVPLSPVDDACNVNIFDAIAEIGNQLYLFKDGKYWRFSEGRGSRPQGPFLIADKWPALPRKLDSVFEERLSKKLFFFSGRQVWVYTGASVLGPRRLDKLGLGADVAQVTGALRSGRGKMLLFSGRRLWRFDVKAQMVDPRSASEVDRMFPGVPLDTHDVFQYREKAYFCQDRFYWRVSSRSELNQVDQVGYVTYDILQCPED
Description: as §1, §2, §5, §6
(§7) The test described above for the inhibition of MMP-13 may also be adapted and used to determine the ability of the compounds of Formula I to inhibit the matrix metalloproteases MMP-1, MMP-2, MMP-3, MMP-7, MMP-9, MMP-12 and MMP-14.
as §4

MMP-13 catalytic domain = target: T2, MMP-13 catalytic domain (Homo sapiens, UniProt P45452); experiment: MMP-13 catalytic domain inhibition (thiopeptolide substrate hydrolysis); format: biochemical; conditions: read-out: MMP-13CD IC50
T2 construct: use the catalytic domain of the MMP-13 enzyme, namely matrix metalloproteinase-13 catalytic domain (“MMP-13CD”)
Description: The assays measure the amount by which a test compound reduces the hydrolysis of a thiopeptolide substrate catalyzed by a matrix metalloproteinase enzyme. […] One such assay is described below in Biological Method 1.
Some of the particular methods described below use the catalytic domain of the MMP-13 enzyme, namely matrix metalloproteinase-13 catalytic domain (“MMP-13CD”), rather than the corresponding full-length enzyme, MMP-13.
Thiopeptolide substrates show virtually no decomposition or hydrolysis at or below neutral pH in the absence of a matrix metalloproteinase enzyme. A typical thiopeptolide substrate commonly utilized for assays is Ac-Pro-Leu-Gly-thioester-Leu-Leu-Gly-OEt. […] Assays are carried out with and without matrix metalloproteinase inhibitor compounds, and the amount of hydrolysis is compared for a determination of inhibitory activity of the test compounds.

MMP-8 full-length = target: T3, MMP-8 full-length (Homo sapiens, UniProt P22894); experiment: MMP-8 full-length inhibition (thiopeptolide substrate hydrolysis); format: biochemical; conditions: read-out: MMP-8FL IC50
T3 construct: MMP-7 full-length, MMP-8 full-length, MMP-9 full-length
T3 sequence (P22894 101-467): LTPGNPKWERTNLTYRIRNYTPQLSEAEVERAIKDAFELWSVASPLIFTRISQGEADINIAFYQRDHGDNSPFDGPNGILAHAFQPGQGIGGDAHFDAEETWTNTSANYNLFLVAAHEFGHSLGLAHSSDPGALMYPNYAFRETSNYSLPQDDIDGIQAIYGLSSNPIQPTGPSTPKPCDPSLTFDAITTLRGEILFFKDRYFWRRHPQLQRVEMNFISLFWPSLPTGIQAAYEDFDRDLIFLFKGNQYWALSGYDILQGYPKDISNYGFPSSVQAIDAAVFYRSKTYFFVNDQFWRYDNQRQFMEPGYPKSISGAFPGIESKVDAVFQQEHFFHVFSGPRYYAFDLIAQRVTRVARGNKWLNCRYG
Description: as §1, §2, §5, §6

MMP-1 full-length = target: T4, MMP-1 full-length (Homo sapiens, UniProt P03956); experiment: MMP-1 full-length inhibition (thiopeptolide substrate hydrolysis); format: biochemical; conditions: read-out: MMP-1FL IC50
T4 sequence (P03956 100-469): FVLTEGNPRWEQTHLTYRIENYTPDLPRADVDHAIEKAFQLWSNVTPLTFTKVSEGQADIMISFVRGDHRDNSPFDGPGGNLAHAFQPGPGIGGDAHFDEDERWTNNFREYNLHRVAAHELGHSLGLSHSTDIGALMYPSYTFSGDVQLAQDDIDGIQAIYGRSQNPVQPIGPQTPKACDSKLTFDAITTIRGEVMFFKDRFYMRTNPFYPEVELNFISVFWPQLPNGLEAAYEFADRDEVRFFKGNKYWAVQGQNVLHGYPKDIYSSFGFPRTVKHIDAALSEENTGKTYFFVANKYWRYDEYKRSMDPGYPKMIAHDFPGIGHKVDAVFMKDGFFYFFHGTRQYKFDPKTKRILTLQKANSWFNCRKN
Description: as §1, §2, §3, §4

MMP-14 catalytic domain = MMP-14 catalytic domain (Homo sapiens, UniProt P50281); experiment: MMP-14 catalytic domain inhibition (thiopeptolide substrate hydrolysis); format: biochemical; conditions: read-out: MMP-14CD IC50
Description: as §1, §2, §5, §6, §7, §4

MMP-17 catalytic domain = target: T5, MMP-17 catalytic domain (Homo sapiens, UniProt Q9ULZ9); experiment: MMP-17 catalytic domain inhibition (thiopeptolide substrate hydrolysis); format: biochemical; conditions: read-out: MMP-17CD IC50
T5 construct: MMP-12 catalytic domain, MMP-14 catalytic domain, and MMP-17 catalytic domain
T5 sequence (Q9ULZ9 126-295 limits assumed): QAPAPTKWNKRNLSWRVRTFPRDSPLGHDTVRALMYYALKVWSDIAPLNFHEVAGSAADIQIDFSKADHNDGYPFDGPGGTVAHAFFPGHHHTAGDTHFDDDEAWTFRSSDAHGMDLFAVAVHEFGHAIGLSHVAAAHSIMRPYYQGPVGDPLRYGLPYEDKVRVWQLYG
Description: as §1, §2, §5, §6

MMP-12 catalytic domain = target: T6, MMP-12 catalytic domain (Homo sapiens, UniProt P39900); experiment: MMP-12 catalytic domain inhibition (thiopeptolide substrate hydrolysis); format: biochemical; conditions: read-out: MMP-12CD IC50
T6 construct: MMP-12 catalytic domain, MMP-14 catalytic domain, and MMP-17 catalytic domain
T6 sequence (P39900 106-263 limits assumed): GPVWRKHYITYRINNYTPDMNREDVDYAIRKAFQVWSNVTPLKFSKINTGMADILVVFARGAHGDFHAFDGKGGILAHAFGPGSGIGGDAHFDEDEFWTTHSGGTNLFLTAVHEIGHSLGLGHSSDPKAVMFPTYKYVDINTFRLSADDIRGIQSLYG
Description: as §1, §2
Thiopeptolide substrates show virtually no decomposition or hydrolysis at or below neutral pH in the absence of a matrix metalloproteinase enzyme. A typical thiopeptolide substrate commonly utilized for assays is Ac-Pro-Leu-Gly-thioester-Leu-Leu-Gly-OEt. A 100 μL assay mixture will contain 50 mM of N-2-hydroxyethylpiperazine-N′-2-ethanesulfonic acid buffer (“HEPES,” pH 7.0), 10 mM CaCl2, 100 μM thiopeptolide substrate, and 1 mM 5,5′-dithio-bis-(2-nitro-benzoic acid) (DTNB). The thiopeptolide substrate concentration may be varied, for example from 10 to 800 μM to obtain Km and Kcat values. The change in absorbance at 405 nm is monitored on a Thermo Max microplate reader (molecular Devices, Menlo Park, Calif.) at room temperature (22° C.). […]

A pIC50 (MMP-7 full-length) of 5.10, a pIC50 (MMP-3 catalytic domain) of 4.00 and a pIC50 (MMP-9 full-length) of less than 4.52 were found for `O=C(O)c1ccc(Cc2nnc(-c3cccc(C#CCc4ccc(F)cc4)c3)s2)cc1` [Example C2, 4-(5-{3-[3-(4-Fluoro-phenyl)-prop-1-ynyl]-phenyl}-[1,3,4]thiadiazol-2-ylmethyl)-benzoic acid] in this work. It also gave a pIC50 (MMP-13 catalytic domain) of 8.96, a pIC50 (MMP-8 full-length) of less than 4.00 and a pIC50 (MMP-1 full-length) of less than 4.52. It also gave a pIC50 (MMP-14 catalytic domain) of 4.57 and a pIC50 (MMP-17 catalytic domain) of less than 4.00.

A pIC50 (MMP-12 catalytic domain) of 4.74, a pIC50 (MMP-3 catalytic domain) of 5.33 and a melting point of 210 to 212 °C were found for `O=C(O)c1ccc(Cn2nnc(-c3cccc(C#CCc4ccc(F)cc4)c3)n2)cc1` [Example C4, 4-(5-{3-[3-(4-Fluoro-phenyl)-prop-1-ynyl]-phenyl}-tetrazol-2-ylmethyl)-benzoic acid] in this work. It also gave a pIC50 (MMP-9 full-length) of less than 4.00, a pIC50 (MMP-13 catalytic domain) of 8.82 and a pIC50 (MMP-8 full-length) of less than 4.00. The pIC50 (MMP-14 catalytic domain) was less than 4.52 and the pIC50 (MMP-17 catalytic domain) was 4.52.

A pIC50 (MMP-7 full-length) of less than 4.00, a pIC50 (MMP-3 catalytic domain) of 4.00 and a melting point of 193 to 194 °C were found for `O=C(O)c1ccc(Cn2nnc(-c3ccnc(C(=O)NCc4ccc(F)cc4)c3)n2)cc1` [Example F12, 4-{5-[2-(4-Fluoro-benzylcarbamoyl)-pyridin-4-yl]-tetrazol-2-ylmethyl}-benzoic acid] in this work. It also gave a pIC50 (MMP-9 full-length) of less than 4.00, a pIC50 (MMP-13 catalytic domain) of 8.77 and a pIC50 (MMP-8 full-length) of less than 4.00. For the same molecule, the pIC50 (MMP-1 full-length) was less than 4.00 and the pIC50 (MMP-14 catalytic domain) was less than 4.00.

A pIC50 (MMP-7 full-length) of less than 4.52, a pIC50 (MMP-3 catalytic domain) of 5.37 and a pIC50 (MMP-9 full-length) of less than 4.52 were found for `COc1ccc(CC#Cc2cncc(-c3nnn(Cc4ccc(C(=O)O)cc4)n3)c2)cc1` [Example H4, 4-(5-{5-[3-(4-Methoxy-phenyl)-prop-1-ynyl]-pyridin-3-yl}-tetrazol-2-ylmethyl)-benzoic acid] in this work. It also gave a pIC50 (MMP-13 catalytic domain) of 8.57, a pIC50 (MMP-8 full-length) of less than 4.00 and a pIC50 (MMP-1 full-length) of less than 4.00. The pIC50 (MMP-14 catalytic domain) was less than 4.52 and the pIC50 (MMP-17 catalytic domain) was less than 4.00.
